Measured values from patent publication US8673910B2, “Proteasome inhibitors for selectively inducing apoptosis in cancer cells” (H. Lee Moffitt Cancer Center and Research Institute, priority 2008, dated 2014).
“And” between values parts separate entries of the source, which are not always exact repeats. Equal entries are not always repeated.

Key:
[1] = target: T1, chymotrypsin-like (CT-L) activity of purified 20S rabbit proteasome (Oryctolagus cuniculus, UniProt G1T4Q9); assay: Proteolytic activity of purified 20S proteasome, fluorogenic substrate Suc-Leu-Leu-Val-Tyr-AMC; type: biochemical; details: purified rabbit 20S proteasome
T1 sequence (G1T4Q9 1-263): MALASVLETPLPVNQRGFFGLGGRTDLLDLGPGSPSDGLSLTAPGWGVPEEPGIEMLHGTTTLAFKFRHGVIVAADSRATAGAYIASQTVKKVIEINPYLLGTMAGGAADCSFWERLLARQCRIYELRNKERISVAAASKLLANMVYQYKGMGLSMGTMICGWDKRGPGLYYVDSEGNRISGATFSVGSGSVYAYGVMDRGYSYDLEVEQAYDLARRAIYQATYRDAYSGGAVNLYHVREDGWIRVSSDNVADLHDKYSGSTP

[2] = tested on: MCF-7 breast cancer cells; assay: MTT metabolism assay; type: cell-based, human; details: Homo sapiens, MCF7, 72 h, MCF-7, 72 h (Table 6); read-out: IC50 for cell viability measured by MTT assay in MCF-7 human breast cancer cells
Procedure: Cells were plated in 96-well plates in 100 μl medium and allowed to attach overnight. […] Media was aspirated after 24 or 72 hours and replaced with 100 μl complete media containing 1 mg/ml MTT and incubated for three hours at 37° C. in 5% CO2 humidified incubator. Media was then aspirated and DMSO was added. Cells were incubated for 10 min at room temperature while shaking, and the absorbance was determined at 540 nm using a μQuant spectrophotometric plate reader (Bio-TEK, Winooski, Vt.).
Cells were plated in 96-well plates in 100 μl medium and allowed to attach overnight. Cells were then incubated for 72 h with varying concentrations of PI-083, YG1-080, YG1-075, HL2-090-2, HL2-090-4, HL2-090-6, and HL2-090-9 or vehicle control (DMSO). Media was aspirated and replaced with 100 μl complete media containing 1 mg/ml MTT and incubated for three hours at 37° C. in 5% CO2 humidified incubator. Media was then aspirated and DMSO was added. Cells were incubated for 10 min at room temperature while shaking, and the absorbance was determined at 540 nm using a μQuant spectrophotometric plate reader (Bio-TEK, Winooski, Vt.).

[3] = target: T2, CT-L activity of the proteasome in MCF-7 human breast cancer cells (Homo sapiens, UniProt P20618+P28074); assay: Proteolytic activity in cell lysates of treated intact MCF-7 cells; type: cell-based; details: intact cells treated 16 h, CT-L measured in cell lysates; two determinations where two values
T2 construct: endogenous in cells; host or cells: MCF-7
Procedure: Human MCF-7 breast cancer cells were cultured in DMEM medium containing 10% fetal calf serum (FCS) and 100 units/ml of penicillin and 100 μg/ml of streptomycin. Cells were maintained at 37° C. in a humidified incubator in an atmosphere of 5% CO2. Cells were treated with different concentrations of PI-083, YG1-080, YG1-075, HL2-090-2, HL2-090-4, HL2-090-6, and HL2-090-9 or vehicle control (DMSO) for 16 h.
Intact cells were treated with compounds and lysates prepared as described above. Cell lysates (5 μg) was incubated with 20 μM Suc-Leu-Leu-Val-Tyr-AMC for the CT-L activity for 1 h at 37° C. in 100 μl of assay buffer (50 mM Tris-HCl, pH 7.6). After incubation, production of hydrolyzed 7-amido-4-methyl-coumarin (AMC) groups was measured using a WALLAC Victor^2 1420 Multilabel Counter with an excitation filter of 355 nm and an emission filter of 460 nm (Perkin Elmer Life Sciences, Turku, Finland).

IC50 ([1]; PI-083 derivatives (Table 7, naphthoquinone library), read-out: IC50 (μM) Chymotrypsin-like activity): 1.1 µM
proteasome (chymotrypsin-like) inhibitory activity, in words [1]: equally as active as PI-083
IC50 [2]: 2.41 ± 0.19 µM
IC50 [3]: 5.1 µM and 4.7 µM
melting point: > 300 °C
SMILES: NS(=O)(=O)c1ccc(NC2=C(Cl)C(=O)c3ccccc3C2=O)cc1 [Compound 2t, 4-(3-chloro-1,4-dioxo-1,4-dihydronaphthalen-2-ylamino)benzenesulfonamide]
